Data published in PubChem BioAssay (NCI).
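Interpolation was linear, between the two tested concentrations surrounding the appropriate level; five concentrations were tested over 48 hours in 96-well plates. Definition used: TGI = concentration required for complete inhibition of growth.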

Assays:
Test in all cases: NCI tumour cell line growth inhibition, 48 h
786-0 renal = tested on: 786-0 renal
A498 renal = tested on: A498 renal
A549 NSCLC = tested on: A549 NSCLC
ACHN renal = tested on: ACHN renal
CAKI-1 renal = tested on: CAKI-1 renal
CCRF-CEM leukemia = tested on: CCRF-CEM leukemia
COLO 205 colon = tested on: COLO 205 colon
DLD-1 colon = tested on: DLD-1 colon
DMS 114 small cell lung = tested on: DMS 114 small cell lung
DMS 273 small cell lung = tested on: DMS 273 small cell lung
EKVX NSCLC = tested on: EKVX NSCLC
HCC-2998 colon = tested on: HCC-2998 colon
HCT-116 colon = tested on: HCT-116 colon
HCT-15 colon = tested on: HCT-15 colon
HL-60(TB) leukemia = tested on: HL-60(TB) leukemia
HOP-62 NSCLC = tested on: HOP-62 NSCLC
HT29 colon = tested on: HT29 colon
IGROV1 ovarian = tested on: IGROV1 ovarian
K-562 leukemia = tested on: K-562 leukemia
KM12 colon = tested on: KM12 colon
KM20L2 colon = tested on: KM20L2 colon
LOX IMVI melanoma = tested on: LOX IMVI melanoma
LXFL 529 NSCLC = tested on: LXFL 529 NSCLC
M14 melanoma = tested on: M14 melanoma
MOLT-4 leukemia = tested on: MOLT-4 leukemia
NCI-H226 lung = tested on: NCI-H226 lung
NCI-H23 lung = tested on: NCI-H23 lung
NCI-H460 lung = tested on: NCI-H460 lung
OVCAR-3 ovarian = tested on: OVCAR-3 ovarian
OVCAR-4 ovarian = tested on: OVCAR-4 ovarian
OVCAR-5 ovarian = tested on: OVCAR-5 ovarian
OVCAR-8 ovarian = tested on: OVCAR-8 ovarian
RPMI-8226 leukemia = tested on: RPMI-8226 leukemia
RXF 393 renal = tested on: RXF 393 renal
SF-268 CNS = tested on: SF-268 CNS
SF-295 CNS = tested on: SF-295 CNS
SF-539 CNS = tested on: SF-539 CNS
SK-MEL-2 melanoma = tested on: SK-MEL-2 melanoma
SK-MEL-28 melanoma = tested on: SK-MEL-28 melanoma
SN12C renal = tested on: SN12C renal
SNB-19 CNS = tested on: SNB-19 CNS
SNB-75 CNS = tested on: SNB-75 CNS
SNB-78 CNS = tested on: SNB-78 CNS
SR leukemia = tested on: SR leukemia
SW-620 colon = tested on: SW-620 colon
TK-10 renal = tested on: TK-10 renal
U251 CNS = tested on: U251 CNS
UACC-257 melanoma = tested on: UACC-257 melanoma
UACC-62 melanoma = tested on: UACC-62 melanoma
UO-31 renal = tested on: UO-31 renal
HOP-18 NSCLC = tested on: HOP-18 NSCLC
HOP-92 NSCLC = tested on: HOP-92 NSCLC
M19-MEL melanoma = tested on: M19-MEL melanoma
MALME-3M melanoma = tested on: MALME-3M melanoma
RXF-631 renal = tested on: RXF-631 renal
SK-MEL-5 melanoma = tested on: SK-MEL-5 melanoma
SK-OV-3 ovarian = tested on: SK-OV-3 ovarian
XF 498 CNS = tested on: XF 498 CNS

Measured: TGI

CCOC(=O)c1cnc2cc3cccccc3n2c1=O
> 100 µM: 786-0 renal | A498 renal | A549 NSCLC | ACHN renal | CAKI-1 renal | CCRF-CEM leukemia | COLO 205 colon | DLD-1 colon | DMS 114 small cell lung | DMS 273 small cell lung | EKVX NSCLC | HCC-2998 colon | HCT-116 colon | HCT-15 colon | HL-60(TB) leukemia | HOP-62 NSCLC | HT29 colon | IGROV1 ovarian | K-562 leukemia | KM12 colon | KM20L2 colon | LOX IMVI melanoma | LXFL 529 NSCLC | M14 melanoma | MOLT-4 leukemia | NCI-H226 lung | NCI-H23 lung | NCI-H460 lung | OVCAR-3 ovarian | OVCAR-4 ovarian | OVCAR-5 ovarian | OVCAR-8 ovarian | RPMI-8226 leukemia | RXF 393 renal | SF-268 CNS | SF-295 CNS | SF-539 CNS | SK-MEL-2 melanoma | SK-MEL-28 melanoma | SN12C renal | SNB-19 CNS | SNB-75 CNS | SNB-78 CNS | SR leukemia | SW-620 colon | TK-10 renal | U251 CNS | UACC-257 melanoma | UACC-62 melanoma | UO-31 renal

CC1=CC2CC(C)C1(C)CCc1ccoc12 (configuration not stated)
> 100 µM: 786-0 renal | A498 renal | A549 NSCLC | ACHN renal | CAKI-1 renal | CCRF-CEM leukemia | COLO 205 colon | DLD-1 colon | DMS 114 small cell lung | DMS 273 small cell lung | EKVX NSCLC | HCC-2998 colon | HCT-116 colon | HCT-15 colon | HL-60(TB) leukemia | HOP-18 NSCLC | HOP-62 NSCLC | HOP-92 NSCLC | HT29 colon | IGROV1 ovarian | K-562 leukemia | KM12 colon | KM20L2 colon | LOX IMVI melanoma | LXFL 529 NSCLC | M14 melanoma | M19-MEL melanoma | MALME-3M melanoma | MOLT-4 leukemia | NCI-H23 lung | NCI-H460 lung | OVCAR-3 ovarian | OVCAR-4 ovarian | OVCAR-5 ovarian | OVCAR-8 ovarian | RPMI-8226 leukemia | RXF 393 renal | RXF-631 renal | SF-268 CNS | SF-295 CNS | SF-539 CNS | SK-MEL-2 melanoma | SK-MEL-28 melanoma | SK-MEL-5 melanoma | SK-OV-3 ovarian | SN12C renal | SNB-19 CNS | SNB-75 CNS | SNB-78 CNS | SR leukemia | SW-620 colon | TK-10 renal | U251 CNS | UACC-257 melanoma | UACC-62 melanoma | UO-31 renal | XF 498 CNS
